# According to US8304394B2, “Low side effect pharmaceutical composition containing isoniazid” (priority 2008, dated 2012):
# Read-outs that look alike come from different tables or passages of the source.
# Legend:
# [1] = target: T1, human liver microsomal cytochrome P450 2E1 (CYP2E1) (Homo sapiens, UniProt P05181); test: Chlorzoxazone hydroxylation inhibition (6-OH-CZX by LC/MS/MS)
# [2] = target: T2, cDNA expressed human cytochrome P450 2E1 (CYP2E1) (Homo sapiens, UniProt P05181)
# rabbits = conditions: pretreatment with amidase inhibitor; cited from earlier work
# [3] = target: T1, human liver microsomal cytochrome P450 2E1 (CYP2E1); conditions: for 6-OH-CZX concentration: human, 30 min, pH 7.4
# CYP2E1 [4] = target: T3, CYP2E1 (Homo sapiens, UniProt P05181); test: in vitro; conditions: for inhibition at 40 min, 16.5 µM: tested concentration 16.5 μM
# CYP2E1 [5] = target: T3, CYP2E1; test: Chlorzoxazone hydroxylation inhibition (6-OH-CZX by LC/MS/MS); conditions: human, microsomes, pH 7.4
# [6] = target: T2, cDNA expressed human cytochrome P450 2E1 (CYP2E1); conditions: 40 min, pH 7.4
# [7] = tested on: Male SD (Sprague-Dawley) rats; test: Liver histopathology by light and electron microscopy in the rat INH study; type: in vivo
# Experimental: (§1) Animals were randomized into one of five groups, each involving three treatments. The first treatment involved either a BNPP injection of 25 mg/kg or a BNPP vehicle (VEH1) injection (saline). […] The second treatment involved injections of either 100 mg/kg DSF or DSF vehicle (VEH2, corn oil). DSF was dissolved in corn oil and i.p. injected at a volume of […]. The third treatment involved injections of INH (25 mg/kg) or INH vehicle (VEH3, saline). INH was dissolved in saline (0.9% NaCl), and i.p. injected at a volume of […]. The first treatment (BNPP or VEH1) was administered 30 minutes before the third treatment (INH or VEH3), and the second treatment (DSF or VEH2) was administered 15 minutes before the third treatment (INH or VEH3).
# • (1) Normal control group (NC, n=12): continuously injections of VEH1, VEH2 and VEH3 intraperitoneally once every day for 21 days; • (2) INH group (INH, n=7): continuously injections of INH, VEH1 and VEH2 intraperitoneally once every day for 21 days; • (3) BNPP-INH group (BNPP-INH, n=7): continuously injections of BNPP, INH and VEH2 intraperitoneally once every day for 21 days; • (4) DSF-INH group (DSF-INH, n=7): continuously injections of DSF, INH and VEH1 intraperitoneally once every day for 21 days; • (5) BNPP-DSF-INH group (BNPP-DSF-INH, n=7): continuously injections of BNPP DSH and INH intraperitoneally once every day for 21 days;
# After the rats were sacrificed, the livers were subjected to histology analysis.
# [8] = tested on: Male SD (Sprague-Dawley) rats; test: Galactose elimination capacity (GEC) residual liver function test in the rat INH study; type: in vivo; conditions: i.p. once daily for 21 days, galactose 0.5 g/kg i.v., mean±SD, control 4.9±0.8
# Experimental: as §1
# • (1) Normal control group (NC, n=12): continuously injections of VEH1, VEH2 and VEH3 intraperitoneally once every day for 21 days; • (2) INH group (INH, n=7): continuously injections of INH, VEH1 and VEH2 intraperitoneally once every day for 21 days; • (3) BNPP-INH group (BNPP-INH, n=7): continuously injections of BNPP, INH and VEH2 intraperitoneally once every day for 21 days; • (4) DSF-INH group (DSF-INH, n=7): continuously injections of DSF, INH and VEH1 intraperitoneally once every day for 21 days; • (5) BNPP-DSF-INH group (BNPP-DSF-INH, n=7): continuously injections of BNPP DSH and INH intraperitoneally once every day for 21 days; […]
# [9] = tested on: Male SD (Sprague-Dawley) rats; test: Rat 21-day INH hepatotoxicity study: plasma AST/ALT, body and relative liver weight; conditions: i.p. once daily for 21 days, INH 25 mg/kg, mean±SD
# [10] = pH 7.4, Inhibition of CYP 2E1 (%)
# T1 sequence (P05181 whole entry): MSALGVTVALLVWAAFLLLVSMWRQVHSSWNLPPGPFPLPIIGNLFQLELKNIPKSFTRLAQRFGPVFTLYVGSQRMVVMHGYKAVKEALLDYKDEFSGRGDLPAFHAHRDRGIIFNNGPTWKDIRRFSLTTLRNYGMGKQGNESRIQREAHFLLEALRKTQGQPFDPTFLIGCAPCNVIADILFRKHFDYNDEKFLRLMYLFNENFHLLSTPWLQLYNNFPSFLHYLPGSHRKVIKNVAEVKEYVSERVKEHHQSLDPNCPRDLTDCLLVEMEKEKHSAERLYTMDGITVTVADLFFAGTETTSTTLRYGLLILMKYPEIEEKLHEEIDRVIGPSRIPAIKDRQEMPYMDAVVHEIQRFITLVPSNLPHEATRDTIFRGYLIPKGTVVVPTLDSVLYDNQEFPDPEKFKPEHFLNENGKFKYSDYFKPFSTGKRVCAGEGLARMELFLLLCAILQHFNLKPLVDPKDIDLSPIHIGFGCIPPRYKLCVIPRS
# T3 sequence (P05181 whole entry): as above
# T2 sequence (P05181 whole entry): as above
structure (smiles),measurement,setting,value
COc1c(O)cc2oc(Oc3ccc(O)cc3)cc(=O)c2c1O [Capillarisin],Inhibition of CYP 2E1 (%),[1]; tested concentration 16.5 μM,32.89 ± 2.46%
same,Inhibition of CYP 2E1 (%),[1]; tested concentration 33 μM,46.22 ± 2.65%
same,Inhibition of CYP 2E1 (%),[1]; tested concentration 66 μM,57.31 ± 1.31%
same,Inhibition of CYP 2E1 (%),[2]; tested concentration 16.5 μM,49.05 ± 5.18%
same,Inhibition of CYP 2E1 (%),[2]; tested concentration 33 μM,60.54 ± 5.91%
same,Inhibition of CYP 2E1 (%),[2]; tested concentration 66 μM,76.12 ± 1.89%
"O=[N+]([O-])c1ccc(OP(=O)(O)Oc2ccc([N+](=O)[O-])cc2)cc1 [BNPP, bis-p-nitrophenyl phosphate]",effect on isoniazid-induced hepatotoxicity,rabbits,can prevent isoniazid-induced hepatotoxicity
CC(Cc1ccc(O)c(O)c1)C(C)Cc1ccc(O)c(O)c1 (centres unmarked) [Nordihydroguaiaretic acid],Inhibition of CYP 2E1 (%),"[3]; microsomes, 33 µM",67.68. ± 2.24%
same,"inhibition at 40 min, 33 µM",CYP2E1 [4]; pH 7.4,92.4 ± 2.2%
same,"inhibition at 40 min, 16.5 µM",CYP2E1 [4]; [10],76.5 ± 3.86%
same,"inhibition at 40 min, 66 µM","CYP2E1 [4]; pH 7.4, Inhibition of CYP 2E1 (%), tested concentration 66 μM",97.99 ± 0.66%
same,"inhibition at 30 min, 16.5 µM",CYP2E1 [5],49.8 ± 2.42%
same,"inhibition at 30 min, 66 µM",CYP2E1 [5],96.98 ± 0.19%
O=c1ccc2ccc(O)cc2o1 [Umbelliferone],Inhibition of CYP 2E1 (%),[6]; 33 µM,−571.97 ± 117.56%
same,Inhibition of CYP 2E1 (%),[6]; 66 µM,−1081.56 ± 168.00%
same,"inhibition at 40 min, 16.5 µM",CYP2E1 [4]; [10],-280 ± 19.5%
"CCN(CC)C(=S)S [DDTC, Diethyldithiocarbamic acid]",HFC synthesis,[6]; 0.03 μM,256.00 pmol
same,HFC synthesis,[6]; 0.091 μM,202.00 pmol
same,HFC synthesis,[6]; 2.47 μM,55.18 pmol
same,HFC synthesis,[6]; 7.4 μM,21.08 pmol
same,HFC synthesis,[6]; 22.2 μM,15.10 pmol
same,6-OH-CZX concentration,[3]; 50 μM,1644.5 pmol
same,6-OH-CZX concentration,[3]; 100 μM,431.2 pmol
same,"inhibition at 40 min, 0.091 μM","CYP2E1 [4]; pH 7.4, Inhibition of CYP 2E1 (%), DDTC 0.091 μM",8.71%
same,"inhibition at 40 min, 2.47 μM","CYP2E1 [4]; pH 7.4, Inhibition of CYP 2E1 (%), DDTC 2.47 μM",75.1%
same,"inhibition at 40 min, 7.4 μM","CYP2E1 [4]; pH 7.4, Inhibition of CYP 2E1 (%), DDTC 7.4 μM",90.5%
same,"inhibition at 40 min, 22.2 μM","CYP2E1 [4]; pH 7.4, Inhibition of CYP 2E1 (%), DDTC 22.2 μM",93.2%
same,"inhibition at 30 min, 50 μM",CYP2E1 [5],48.7%
same,"inhibition at 30 min, 100 μM",CYP2E1 [5],87.6%
"NNC(=O)c1ccncc1 [INH, isoniazid]",hepatic necrosis (EM results),[7]; daily i.p. injections for three weeks,no hepatic necrosis was observed
same,liver injury (histopathology),"[7]; daily i.p. injections for three weeks, versus control group",hepatocellular damage
same,hepatocyte rough endoplasmic reticulum (rER) versus control,"[7]; electron microscopy 9,000×",increased significantly
same,GEC value,[8],3.4±0.6 mg/min·kg
same,peak plasma ALT activity,[9]; control 44±6,52±3 IU/L
same,peak plasma AST activity,[9]; control 116±11,129±10 IU/L
Oc1cc(O)c2c(c1)O[C@H](c1ccc(O)c(O)c1)[C@H](O)C2 [(−)-Epicatechin],Inhibition of CYP 2E1 (%),[2]; tested concentration 16.5 μM,18.27 ± 9.34%
same,Inhibition of CYP 2E1 (%),[2]; tested concentration 33 μM,15.02 ± 5.50%
same,Inhibition of CYP 2E1 (%),[2]; tested concentration 66 μM,2.57 ± 11.60%
